This passage reports MIC, Activity and LC50 results from ChEMBL document CHEMBL1148093, “Biological effects of prenylated hydroquinones: structure-activity relationship studies in antimicrobial, brine shrimp, and fish lethality assays” (J Nat Prod, 1994).

Series [1] relates to Candida albicans. Kind of series: Antimicrobial activity against Candida albicans DSM 1665 after 18 hrs by twofold serial dilution method. It is filed as functional.
The subject of series [2] is Escherichia coli. Kind of series: Antimicrobial activity against Escherichia coli DSM 1103 after 18 hrs by twofold serial dilution method. Type of series: functional, organism-based.
Series [3] has as its system Micrococcus luteus. Kind of series: Antimicrobial activity against Micrococcus luteus DSM 348 after 18 hrs by twofold serial dilution method. Type of series: functional.
The test system of series [4] is Bacillus subtilis. Kind of series: Antimicrobial activity against Bacillus subtilis DSM 347 after 18 hrs by twofold serial dilution method. Type of series: functional.
The subject of series [5] is Pseudomonas aeruginosa. Kind of series: Antimicrobial activity against Pseudomonas aeruginosa DSM 1117 after 18 hrs by twofold serial dilution method. It is filed as functional, organism-based.
The subject of series [6] is Artemia salina. Kind of series: Toxicity against Artemia salina after 24 hrs. The following applies: in vivo.
Series [7] concerns Gambusia affinis. Kind of series: Toxicity against Gambusia affinis. The settings on record: in vivo.

In brackets after ≈: the same amount, converted by molar mass. Activity calls are given as the source filed them. The calls are words filed in the database; no cut-off is given here.

As for `CC(C)=CCC/C(C)=C/CC/C(C)=C/CC/C(C)=C/CC/C(C)=C/CC/C(C)=C/CC1=CC(=O)C=CC1=O`, the MIC result in series [1], in series [3] and in series [4] was “inactive” in each case. The outcome in series [2] and in series [5] was inactive.
Consider `Oc1ccc(O)cc1` [HYDROQUINONE], for which the LC50 (in general, the concentration that kills 50% of the test population) in series [6] worked out at 0.35 ppm; in series [7] it was 21.5 ppm. Moreover, the MIC (commonly the lowest concentration found to suppress growth) in series [1] was “inactive”. Besides, the outcome in series [2] and in series [5] was inactive. The MIC in series [3] (DSM 348, 18 h) is > 50 µg/mL; in series [4] (DSM 347, 18 h) it was > 50 µg/mL.
For `CC(C)=CCC/C(C)=C/CC/C(C)=C/CC/C(C)=C/CC/C(C)=C/CC/C(C)=C/CC/C(C)=C/CC/C(C)=C/Cc1cc(O)ccc1O`, the 50% lethal concentration (LC50) is listed as 0.98 ppm in series [6] and > 100 ppm in series [7]. The MIC result in series [1], in series [3] and in series [4] was “inactive” throughout. Also, the result in series [2] and in series [5] was inactive.
As to `CC(C)=CCC/C(C)=C/CC/C(C)=C/CC/C(C)=C/CC/C(C)=C/CC/C(C)=C/CC/C(C)=C/Cc1cc(O)ccc1O`, the median lethal concentration (LC50) in series [6] is 0.91 ppm; in series [7], > 100 ppm. The MIC entry in series [1], in series [3] and in series [4] was “inactive” each time. For the same compound, the result in series [2] and in series [5] was inactive.
Consider `CC(C)CCCC(C)CCCC(C)CCCC(C)CCCC(C)CCCC(C)CCCC(C)CCc1cc(O)ccc1O` (configuration not stated), for which the median lethal concentration (LC50) in series [6] is recorded as > 10 ppm; in series [7] it was > 100 ppm. For the same compound, the MIC entry in series [1], in series [3] and in series [4] was “inactive” in each case. Besides, the outcome in series [2] and in series [5] was inactive.
For the compound `CC(C)CCc1cc(O)ccc1O`, the 50% lethal concentration (LC50) came to 0.29 ppm in series [6] and 3.3 ppm in series [7]. The minimum inhibitory concentration (MIC) is > 50 µg/mL in series [1] (DSM 1665, 18 h); 6.25 µg/mL (≈ 34.7 µM) in series [3] (DSM 348, 18 h); 12.5 µg/mL (≈ 69.3 µM) in series [4] (DSM 347, 18 h). In addition, the outcome in series [2] and in series [5] was inactive.
Regarding `CC(C)=CCc1cc(O)ccc1O` [PRENYLHYDROQUINONE], the results for the median lethal concentration (LC50) in series [6] and in series [7] were 0.54 ppm and 22.2 ppm, respectively. Also, the MIC in series [1] (DSM 1665, 18 h) is > 50 µg/mL; in series [3] (DSM 348, 18 h), 25 µg/mL (≈ 140 µM); in series [4] (DSM 347, 18 h), > 50 µg/mL. Besides, the result in series [2] and in series [5] was inactive.
On to `CC(C)=CCC/C(C)=C/CC/C(C)=C/CC/C(C)=C/CC/C(C)=C/CC/C(C)=C/CC/C(C)=C/CC1=CC(=O)C=CC1=O`, for which the 50% lethal concentration (LC50) in series [6] is 1.26 ppm; in series [7] it was > 100 ppm. Besides, the MIC entry in series [1], in series [3] and in series [4] was “inactive” in each case. Besides, the result in series [2] and in series [5] was inactive.
In series [1] (DSM 1665, 18 h), `Clc1ccc(COC(Cn2ccnc2)c2ccc(Cl)cc2Cl)c(Cl)c1` (configuration not stated) [MICONAZOLE] came in with an MIC of 1.56 µg/mL (≈ 3.75 µM). Moreover, the result in series [2] and in series [5] was inactive.
In the case of `CC(C)=CCC/C(C)=C/CC/C(C)=C/Cc1cc(O)ccc1O`, the results for the LC50 in series [6] and in series [7] were 0.05 ppm and 3.3 ppm, respectively. Besides, the MIC result in series [1] was “inactive”. Further, the outcome in series [2] and in series [5] was inactive. Besides, the minimum inhibitory concentration (MIC) in series [3] (DSM 348, 18 h) came out at 12.5 µg/mL (≈ 39.7 µM); in series [4] (DSM 347, 18 h) it was 1.56 µg/mL (≈ 4.96 µM).
As to `CC(C)CCCC(C)CCCC(C)CCCC(C)CCc1cc(O)ccc1O` (configuration not stated), the LC50 was determined as 0.02 ppm in series [6] and 43.6 ppm in series [7]. In addition, the MIC result in series [1], in series [3] and in series [4] was “inactive” each time. In addition, the result in series [2] and in series [5] was inactive.
Take `CC1=CC(=O)C=CC1=O` [Cresoquinone]: the values for the LC50 in series [6] and in series [7] were 1.06 ppm and 5.4 ppm, respectively. Further, the minimum inhibitory concentration (MIC) in series [1] (DSM 1665, 18 h) was > 50 µg/mL; in series [3] (DSM 348, 18 h) it was > 50 µg/mL; in series [4] (DSM 347, 18 h), 25 µg/mL (≈ 205 µM). Also, the outcome in series [2] and in series [5] was inactive.
For the compound `CC(C)=CCC/C(C)=C/CC/C(C)=C/CC/C(C)=C/CC/C(C)=C/CC/C(C)=C/Cc1cc(O)ccc1O`, the LC50 is reported as 0.63 ppm in series [6] and > 100 ppm in series [7]. Further, the MIC entry in series [1], in series [3] and in series [4] was “inactive” throughout. The result in series [2] and in series [5] was inactive.
Turning to `CC(C)CCCC(C)CCCC(C)CCc1cc(O)ccc1O` (configuration not stated), the figures for the 50% lethal concentration (LC50) in series [6] and in series [7] were 0.02 ppm and 21.3 ppm, respectively. Further, the MIC result in series [1] was “inactive”. Besides, the result in series [2] and in series [5] was inactive. In addition, the MIC in series [3] (DSM 348, 18 h) is > 50 µg/mL; in series [4] (DSM 347, 18 h), > 50 µg/mL.
As for `Cc1cc(O)ccc1O` [METHYLHYDROQUINONE], the LC50 was > 10 ppm in series [6] and 38.5 ppm in series [7]. Moreover, the minimal inhibitory concentration (MIC) is > 50 µg/mL in series [1] (DSM 1665, 18 h); > 50 µg/mL in series [3] (DSM 348, 18 h); 25 µg/mL (≈ 201 µM) in series [4] (DSM 347, 18 h). In addition, the outcome in series [2] and in series [5] was inactive.
For the compound GENTAMICIN, the result in series [2] and in series [5] was inactive. Also, the minimal inhibitory concentration (MIC) in series [3] was 1.56 µg/mL; in series [4] it was 0.78 µg/mL.
Take `C=C(C)[C@H]1Cc2c(ccc3c2O[C@@H]2COc4cc(OC)c(OC)cc4[C@@H]2C3=O)O1` [ROTENONE]: the LC50 in series [7] is 0.03 ppm. For the same compound, the result in series [2] and in series [5] was inactive.
With `CC(C)CCCC(C)CCCC(C)CCCC(C)CCCC(C)CCCC(C)CCc1cc(O)ccc1O` (configuration not stated), the values for the median lethal concentration (LC50) in series [6] and in series [7] were > 10 ppm and > 100 ppm, respectively. Besides, the MIC entry in series [1], in series [3] and in series [4] was “inactive” throughout. The outcome in series [2] and in series [5] was inactive.
Turning to `CC(C)=CCC/C(C)=C/Cc1cc(O)ccc1O` [GEROQUINOL], the LC50 in series [6] amounted to 0.01 ppm; in series [7] it was 4.6 ppm. For the same compound, the minimal inhibitory concentration (MIC) in series [1] (DSM 1665, 18 h) amounted to 25 µg/mL (≈ 101 µM); in series [3] (DSM 348, 18 h), 12.5 µg/mL (≈ 50.7 µM); in series [4] (DSM 347, 18 h), 6.25 µg/mL (≈ 25.4 µM). Also, the outcome in series [2] and in series [5] was inactive.
As to `CC(C)=CCC/C(C)=C/CC/C(C)=C/CC/C(C)=C/CC/C(C)=C/CC/C(C)=C/CC/C(C)=C/CC/C(C)=C/CC1=CC(=O)C=CC1=O`, the values for the LC50 in series [6] and in series [7] were 1.45 ppm and > 100 ppm, respectively. For the same compound, the MIC result in series [1], in series [3] and in series [4] was “inactive” throughout. Besides, the result in series [2] and in series [5] was inactive.
Consider `CC(C)CCCC(C)CCCC(C)CCCC(C)CCCC(C)CCCC(C)CCCC(C)CCCC(C)CCc1cc(O)ccc1O` (configuration not stated), for which the LC50 in series [6] is > 10 ppm; in series [7], > 100 ppm. Besides, the MIC result in series [1], in series [3] and in series [4] was “inactive” each time. In addition, the result in series [2] and in series [5] was inactive.
As for `O=C1C=CC(=O)C=C1` [BENZOQUINONE], the MIC in series [1] (DSM 1665, 18 h) was 25 µg/mL (≈ 231 µM); in series [3] (DSM 348, 18 h), > 50 µg/mL; in series [4] (DSM 347, 18 h), > 50 µg/mL. For the same compound, the outcome in series [2] and in series [5] was inactive.
On to `CC(C)=CCC1=CC(=O)C=CC1=O`, for which the LC50 in series [6] amounted to 0.19 ppm; in series [7], 1.4 ppm. For the same compound, the minimum inhibitory concentration (MIC) in series [1] (DSM 1665, 18 h) was > 50 µg/mL; in series [3] (DSM 348, 18 h), 25 µg/mL (≈ 142 µM); in series [4] (DSM 347, 18 h), 25 µg/mL (≈ 142 µM). For the same compound, the result in series [2] and in series [5] was inactive.
Take `CC1=CCC[C@H]2[C@](C)(Cc3cc(O)ccc3O)[C@@H](C)CC[C@]12C` [AVAROL]: the 50% lethal concentration (LC50) in series [6] amounted to 0.18 ppm; in series [7], 4.6 ppm. In series [1], the MIC entry was “inactive”. Besides, the result in series [2] and in series [5] was inactive. Moreover, the MIC in series [3] (DSM 348, 18 h) was > 50 µg/mL; in series [4] (DSM 347, 18 h) it was > 50 µg/mL.
Take `CC(C)CCCC(C)CCc1cc(O)ccc1O` (configuration not stated): the results for the LC50 in series [6] and in series [7] were 0.001 ppm and 0.15 ppm, respectively. Further, the MIC result in series [1] was “inactive”. Further, the result in series [2] and in series [5] was inactive. Also, the MIC in series [3] (DSM 348, 18 h) was found to be 6.25 µg/mL (≈ 25 µM); in series [4] (DSM 347, 18 h) it was 6.25 µg/mL (≈ 25 µM).
`CC(C)=CCC/C(C)=C/CC1=CC(=O)C=CC1=O`: the LC50 in series [6] worked out at 0.05 ppm; in series [7] it was 0.2 ppm. Further, the minimal inhibitory concentration (MIC) in series [1] (DSM 1665, 18 h) was found to be 25 µg/mL (≈ 102 µM); in series [3] (DSM 348, 18 h) it was 12.5 µg/mL (≈ 51.2 µM); in series [4] (DSM 347, 18 h) it was 12.5 µg/mL (≈ 51.2 µM). The result in series [2] and in series [5] was inactive.
